Laboratory results: patent publication US9884040B2, “Desethylamiodarone for use in cancer treatment” (PÉCSI TUDOMÁNYEGYETEM, priority 2015, dated 2018)

Columns and labels:
[1] = test system: T24 (human urinary bladder carcinoma) cells; assay: MTT cell viability assay, T24; format: cell-based; settings: 24 h and 48 h; 5, 10, 15 and 15 μM; vs untreated control
Procedure: (§1) The cells were seeded into 96-well plates at a starting density of 10^4 cells per well and cultured overnight before DEA was added to the medium for 24 h and 48 h. The medium was changed to a fresh one containing 0.5% of 3-[4,5-dimethylthiazol-2-yl]-2,5-diphenyl-tetrazolium bromide (MTT+) for an additional 3 hours, then the MTT+ reaction was terminated by adding HCl to 10 mM final concentration. The amount of blue formazan dye formed from MTT+ was proportional to the number of live cells, and was determined with an Anthos Labtech 2010 ELISA reader at 550 nm. All experiments were run in at least 4 replicates and repeated 3 times.
The effect of desethylamiodarone was measured in T24 (human urinary bladder carcinoma), A549 (human lung adenocarcinoma epithelial), B16F10 (mice melanoma), HeLa (human cervix adenocarcinoma), 4T1 (mouse mammary carcinoma) cell lines. Cells were treated with increasing concentrations of desethylamiodarone for 24 and 48 h. Cell growth was assessed by measuring metabolic activity, which reflects viability in the MTT-test in the course of 24 h, 48 h of continued exposure to desethylamiorarone. The untreated cells served as negative controls. […]
T24 cells were exposed for 24 h (A), 48 h (B) to […], 10 μM, 15 μM and 15 μM desethylamiodarone (filled bars). Viability of the cells was detected by the MTT+ method. […]

[2] = test system: A549 (human lung adenocarcinoma epithelial) cells; assay: MTT cell viability assay, A549; format: cell-based; settings: increasing concentrations, 24 and 48 h
Procedure: as §1
The effect of desethylamiodarone was measured in T24 (human urinary bladder carcinoma), A549 (human lung adenocarcinoma epithelial), B16F10 (mice melanoma), HeLa (human cervix adenocarcinoma), 4T1 (mouse mammary carcinoma) cell lines. Cells were treated with increasing concentrations of desethylamiodarone for 24 and 48 h. Cell growth was assessed by measuring metabolic activity, which reflects viability in the MTT-test in the course of 24 h, 48 h of continued exposure to desethylamiorarone. The untreated cells served as negative controls. The viability of the cells, was lower in all DEA-treated than in the control group, with the difference being statistically significant.

[3] = test system: HeLa human cervix adenocarcinoma cell line; assay: Colony formation assay, HeLa; format: cell-based; settings: one week; 1, 1.5, 2, 2.5 or 3 μM
Procedure: (§2) Cells were trypsinized and plated in triplicate into 6-well plates at 500 cells/well. Cells were treated with different concentration of Dea. After 7 days of incubation, cells were washed and stained with Coomassie-blue, and the colonies containing more than 50 cells were counted. The number of colonies were determined and normalized to the number of colonies in controls. To assess the recovery ability of cells that survived treatment, long-term (7 days) colony formation assay was performed. […] HeLa cells were incubated with the indicated concentrations of desethylamiodarone (1, 1.5, 2, 2.5 or 3 μM for one week and cell colonies were fixed, stained and counted. (A-B) Data are expressed as the mean±SD of ≧3 experiments; a p<0.01 is considered statistically significant The data shown on FIG. 8 provide evidence that DEA can be useful to cervix carcinoma.

[4] = test system: DU-145 prostate cancer cell line; assay: MTT cell viability assay, DU-145; format: cell-based; settings: increasing concentrations, 24, 48 and 72 hours
Procedure: as §1
145 cells were exposed to increasing concentrations of DEA for 24, 48 and 72 hours. Viability of the cells was detected by the MTT method. Untreated cells served as controls.

[5] = test system: MCF 7 breast cancer cells; assay: Radiotherapy plus DEA, MTT viability, MCF 7; format: cell-based; settings: 2Gy, 24, 48 and 72 hours, increasing DEA
Procedure: as §1
MCF 7 cells were exposed to 2Gy irradiation for 24, 48 and 72 hours in presence or absence of increasing concentration of DEA. Viability of the cells was detected by the MTT method. Untreated cells served as controls.

[6] = clinically relevant concentrations; cited from earlier work
[7] = repetitive exposures; cited from earlier work
[8] = after administration of amiodarone; cited from earlier work
[9] = test system: A549 human lung adenocarcinoma epithelial cell line; assay: Radiotherapy plus DEA, colony formation, A549; format: cell-based; settings: 1Gy or 2Gy single dose alone or with 500 nM-3 μM DEA
Procedure: (§3) Cells were trypsinized and plated in triplicate into 6-well plates at 500 cells/well. Cells were treated with different concentration of DEA and irradiated with a dose of 1.0 and 2.0 Grays. A telecobalt (Therathron 780 C) external irradiation equipment (average photon energy of 1.25 MeV) will be applied for irradiating cells. After 7 days of incubation, cells were washed and stained with Coomassie-blue, and the colonies containing more than 50 cells were counted. The number of colonies were determined and normalized to the number of colonies in controls.
To examine the effects of a DEA on the effectiveness of radiotherapy the cells were treated with 1Gy or 2Gy single dose irradiation alone or combined with 500 nM-3 μM DEA.
The cells were treated with 1Gy or 2Gy single dose irradiation alone or combined with 500 nM-3 μM DEA. Untreated cells served as controls. The results are mean±SEM of 3 independent experiments performed in at least quadruplicate. p<0.05 compared to the corresponding control group.

[10] = test system: MCF 7 breast cancer cell line; assay: MTT cell viability assay, MCF 7; format: cell-based; settings: increasing concentrations, 24, 48 and 72 hours
Procedure: as §1
MCF 7 cells were exposed to increasing concentrations of DEA for 24, 48 and 72 hours. Viability of the cells was detected by the MTT method. Untreated cells served as controls.

[11] = test system: mitochondrial permeability transition; settings: applicants' previous published results; cited from earlier work
[12] = test system: B16F10 mice melanoma cell line; assay: Colony formation assay, B16F10; format: cell-based; settings: one week; 1, 1.5, 2, 2.5 or 3 μM
Procedure: as §2, with “B16F10” for “HeLa”, “significant.” for “significant”, “6” for “8”, “treat melanoma.” for “cervix carcinoma.”

[13] = test system: T24/83 human urinary bladder carcinoma cell line; assay: Colony formation assay, T24; format: cell-based; settings: 7 days; 500 nM-3 μM
Procedure: as §3, with “Dea.” for “DEA and irradiated with a dose of 1.0 and 2.0 Grays. A telecobalt (Therathron 780 C) external irradiation equipment (average photon energy of 1.25 MeV) will be applied for irradiating cells.”
To assess the recovery ability of cells that survived treatment, long-term (7 days) colony formation assay was performed.
Untreated cells served as controls. The results are mean±SEM of 3 independent experiments performed in at least quadruplicate. p<0.01 compared to the corresponding control group. The data shown on FIG. 5 provide evidence that DEA can be useful to treat bladder cancer.

CCCCc1oc2ccccc2c1C(=O)c1cc(I)c(OCCNCC)c(I)c1 [DEA, (2-butyl-3-benzofuranyl)[4-[2-(ethylamino)ethoxy]-3,5-diiodophenyl]-methanone]
Viability of T24 cells (MTT) [1]: Significantly different from control group at p<0.01
Viability of A549 cells (MTT) [2]: significantly inhibited the viability
Colony formation, HeLa [3]: significant decrease in the number and the size of colonies
Viability of DU-145 cells (MTT) [4]: induces cell death
Radiosensitization, viability of MCF 7 (MTT) [5]: sensitize MCF 7 breast cancer cells to irradiation
Action potential duration (class III antiarrhythmic effect) [6]: significantly increasing the action potential duration
Maximum rate of depolarization (class I antiarrhythmic effect) [6]: decreasing the maximum rate of depolarization
Drug accumulation in cell cultures [7]: always higher than that of AM
Concentration in the lungs [8]: can reach mM concentrations
Radiosensitization, colony formation, A549 [9]: sensitize lung cancer to irradiation
Viability of MCF 7 cells (MTT) [10]: induces cell death
Mitochondrial permeability transition [11]: caused mitochondrial permeability transition
Colony formation, B16F10 [12]: significant decrease in the number and the size of colonies
Colony formation, T24 [13]: significant decrease in the number and the size of colonies
